The text below walks through data of US20220354852A1, “TARGETING WNT SIGNALING FOR IMPROVED GLIOMA IMMUNOTHERAPY” (CITY OF HOPE, priority 2021, published 2022).

Entries after “also recorded” stand apart in the source; their conditions may differ.

Assay [1] concerns subcutaneous murine K-luc GBM tumors. As to the kind of experiment: NanoString mouse immune panel of subcutaneous K-luc tumors. Type of assay: in vivo. Conditions: 50 mg/kg/day, compared with untreated controls on day 21. An excerpt:
FIG. 23. NanoString analysis of subcutaneous K-luc tumors using the mouse immune panel. 750 mRNA concentration measurements, measured in baseline cells first at day 0 and then in subcutaneously transplanted tumors in separate mice at day 7, 14, and 21 (n=2). Sample 507 is a tumor that was not treated with ICG-001, was harvested on day 21, and is a baseline for comparison for days 7, 14, and 21. The log10 fold-change in mRNA expression was considered between 507 and the other samples.
Animal studies. Syngeneic mice (C57BL/6) of 8-12 weeks of age were implanted with subcutaneous K-Luc tumors (n=8). 7 days after, when tumors became palpable and after confirmation of the tumor presence with BLU imaging, mice were implanted with Alzet minipumps with ICG001 (50 mg/kg/day). Pumps were continuously providing a daily dose of ICG-001. Tumor tissues were harvested on days 7, 14, 21 post pump implantation and tumors were prepared for IHC (paraffin sections) and Nanostring analysis.
NanoString analysis of subcutaneous murine K-luc GBM tumors The ICG-001 and saline control treated tumors were harvested on days 7, 14, and 21. Freshly frozen K-luc tumors were used for RNA isolation and NanoString analysis to determine endogenous immune response upon treatment with ICG-001. […]

Assay [2] relates to T cells derived from 3 donors. As to the kind of experiment: NanoString gene expression analysis of T cells treated with ICG-001. In kind it is cell-based. Conditions: ICG-001 2.5 or 5 μM. On the procedure:
FIG. 27. T cells treated with ICG001 2.5 and 5 μM for 24 or 72 h. (A) CAR Ts mock and HER2 from one donor and mock CARs derived from two additional donors were plated on 6-well format plates and treated with ICG001 at concentrations 0-5 μM for 24 or 72 h. Cells were collected from each well, counted, and viability was determined. (B, C) NanoString analysis of T cells treated with ICG-001 to determine concentration-dependent metabolic changes. […] (E) Correlation of differential gene expression in all T cell lines combined at concentration of 2.5 and 5 μM.
Antagonism of WNT/CBP/β-catenin signaling effects CAR T cells. Wnt signaling plays critical roles in T cell development and commitment (Li et al. 2019). Thus, the combined data derived from all T cell lines used and compared with untreated controls was analyzed for each T cell line.
However, at a higher concentration of ICG-001, a higher degree of differential gene expression was observed. […]

The nature of assay [3]: Orthotopic syngeneic murine hepatocellular carcinoma model (qRT-PCR, IHC). Type of assay: in vivo. The settings on record: IHC, minimally 10 fields counted. The text has this: (§1) CXCL9 and CXCL10, are produced mainly by BATF3 dendritic cells that are required for Teff trafficking. The CXCL9, CXCL10, CXCL11/CXCR3 signaling axis is critical for activated T-helper type 1 (Th1), cytotoxic T-cell (CTL), and natural killer (NK) cell recruitment immune cell recruitment in vivo. A similar effect resulting from ICG-001 is likely, such as increased CD8^+T-cell infiltration into brain tumors (FIG. 3B).
A general note: In qPCR the cycle at which signal appears reflects the starting amount.

Assay [4] has as its system interferon-y regulated chemokines CXCL9-11 in the TME. The assay is described as above. In kind it is in vivo. Conditions: qRT-PCR, previously demonstrated.
Text: as §1

Assay [5] has as its system human patient-derived glioma (PBT017, PBT030, PBT135, PBT144, and PBT147). As to the kind of experiment: ICG-001 single agent on human patient-derived glioma cell lines (growth kinetics, morphology). In kind it is cell-based. On the procedure:
FIG. 2. Combinational strategy of CAR T cell-mediated tumor-antigen targeting with ICG-001 induced differentiation in glioma. […] (B) Cytotoxicity of HER2 CAR-T cells and tumor cells (1:5 ratio) was enhanced by ICG-001 at concentrations 1.25-5 μM. (C) Treatment of PBT138 patient glioma tumors with CAR T IL13Rα2+/−ICG-001.
FIG. 11. (A, B) Growth kinetics of human PBT glioma lines (PBT017, PBT030, PBT135, PBT144, and PBT147) treated with ICG-001 (0-10 μM) for 7 days and (C) mouse glioma cells (GL261, GL261-IL13, and K-luc) treated with ICG-001 (0-10 μM) for 4 days. Red boxes indicate PBT030 and PBT147 cell lines used for Nanostring and proteomics analysis. Scale bars represent S.D. of triplicate samples. (D-F) Growth kinetics of PBT017 (2,500 cells/well) treated with or without HER2-CAR T cells (500 cells/well) and with or without ICG-001 (0-5 μM). The red line is CAR T cell treatment only and the bottom three lines are with ICG-001. Experiment was done in quadruplicate and error bars indicate S.D.
PBT tumor cells lines are patient derived tumors dissociated and grown in DMEM/F12 medium, supplemented with heparin, hepes, glutamax and B27. EFG and FGF is added at the time of the culture as described previously (Brown et al. 2009). ICG-001 was kindly provided by another laboratory.
In vitro experiments. Co-culture assay of PBT cell lines grown as described above and seeded to 100,000 cells/2 ml in 6 well plates. ICG-001 is added to the cell culture in concentrations […] for 24-72 h, as described previously (Brown et al. 2013).
ICG-001 activity in vitro in human and mouse glioma cell lines. Initially, the effects of the specific CBP/β-catenin antagonist ICG-001 was tested in vitro as a single agent on human and mouse glioma cell lines (5 PBT human and 3 mouse glioma lines).

As for `O=C1[C@H](Cc2ccc(O)cc2)N2C(=O)CCN(C(=O)NCc3ccccc3)[C@H]2CN1Cc1cccc2ccccc12` [ICG-001], the “immune pathways (mRNA) in tumor versus untreated controls” value in assay [1] is on record as “concentration dependent increase in immune pathways”. In addition, the T cell differentiation entry in assay [2] is “directed T cell differentiation into multiple types of effector and memory T cells”. Also, the “expression of DPP4, CD48, CEBPB, B2M, ICOSLG, CD81, CXCR4, XBP1, NFIL3, and others in T cells” value in assay [2] (24 or 72 h) is recorded as “upregulation of key genes”. The “CD8+ T cell infiltration into the tumor microenvironment” value in assay [3] is “increased CD8+ T cell infiltration”. In addition, in assay [4], the “expression of interferon-y regulated chemokines CXCL9-11 in the TME” value is “significantly increased; also recorded: increased the expression”. Moreover, in assay [5] (ICG-001 0-10 μM, 7 days, PBT017, PBT030, PBT135, PBT144, PBT147), the “effect on cell growth (growth kinetics)” value is “concentration dependent cytostatic effect”. Moreover, the “differentiation and growth of PBT017 glioma cells” value in assay [5] (ICG-001 0.75-10 μM, PBT017) was “differentiation and cell growth arrest”. Moreover, the morphological phenotype entry in assay [5] (all glioma lines, demonstrated with PBT017.RFP) was “less proliferative and more differentiated phenotype”.
